A word on the IC50: it is the point on the concentration scale where inhibition reaches its midpoint. A high value points to weaker potency.

Results on ten compounds are retold here after US12528784B2, “Alkynyl-(heteroaryl)-carboxamide HCN1 inhibitors” (Hoffmann-La Roche Inc., priority 2019, dated 2026).

Holding throughout (type): cell-based
The target of one assay is T1, HCN1 (Homo sapiens, UniProt O60741).
T1 construct: expressed in transfected cells
T1 sequence (O60741 1-890): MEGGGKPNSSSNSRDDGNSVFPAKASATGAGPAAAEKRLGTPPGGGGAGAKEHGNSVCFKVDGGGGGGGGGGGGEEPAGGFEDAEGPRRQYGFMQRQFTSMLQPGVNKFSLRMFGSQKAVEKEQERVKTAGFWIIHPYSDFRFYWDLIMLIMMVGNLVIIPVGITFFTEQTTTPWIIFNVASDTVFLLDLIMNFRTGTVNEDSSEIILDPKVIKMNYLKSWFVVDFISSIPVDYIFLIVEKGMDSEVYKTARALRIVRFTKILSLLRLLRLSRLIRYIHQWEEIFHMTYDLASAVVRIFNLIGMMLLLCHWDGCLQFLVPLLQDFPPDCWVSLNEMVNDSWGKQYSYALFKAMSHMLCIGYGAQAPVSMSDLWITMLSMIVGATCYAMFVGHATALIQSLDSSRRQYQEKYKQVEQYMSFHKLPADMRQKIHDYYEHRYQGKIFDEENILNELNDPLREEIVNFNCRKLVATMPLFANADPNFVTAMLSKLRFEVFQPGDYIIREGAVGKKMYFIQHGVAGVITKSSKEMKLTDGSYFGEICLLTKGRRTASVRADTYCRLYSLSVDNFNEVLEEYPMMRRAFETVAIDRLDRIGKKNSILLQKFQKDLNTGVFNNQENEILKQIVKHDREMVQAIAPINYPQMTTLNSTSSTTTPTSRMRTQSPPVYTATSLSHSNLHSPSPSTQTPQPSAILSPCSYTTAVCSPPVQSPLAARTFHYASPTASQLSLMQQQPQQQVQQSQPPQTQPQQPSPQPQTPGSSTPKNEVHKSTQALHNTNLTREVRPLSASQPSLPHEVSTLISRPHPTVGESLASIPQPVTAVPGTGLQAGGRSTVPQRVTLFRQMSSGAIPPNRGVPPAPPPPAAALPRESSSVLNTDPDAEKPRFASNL
The assay is described as follows: HCN1 automated patch clamp current inhibition assay (Ionworks Barracuda). The following applies: HEK-293 cells stably expressing HCN1; current inhibition during a hyperpolarizing pulse of -100 mV. As for the experimental part: (§1) In vitro, high-throughput cellular electrophysiology was employed to detect voltage- and use-dependence of compounds in single concentration screening and IC50 determination for library and medicinal chemistry profiling compounds in 384 well plates.
(§2) Cell cultures were maintained in DMEM/F12 cell growth media containing FBS and appropriate antibiotics at 37° C., 5% CO2 for a maximum of 20 passages. At a time point of 40-72 hours prior to assay, the expression of HCN protein in the cells is induced by addition of tetracyclin. Cells may be incubated at 27° C. for 2-24 hours of induction. […] Cells were harvested at 80% confluency and resuspended in extracellular buffer and added to wells. A freshly prepared Escin solution was added to intracellular buffer and applied to establish whole cell recording via perforated patch clampling by APC.
(§3) Currents through activated channels were measured directly by APC by employing hyperpolarizing voltage steps. The activation window was increased and stabilized by the addition of cell permeable Br-cAMP. Baselines were established for both use- and voltage-dependence protocols using a −30 mV holding potential and multiple test pulses at −100 mV or by 20 mV steps from −120 to 0 mV, respectively. Test compounds were added after baseline recordings followed by a 10 min incubation, voltage-dependency protocol recording, and use-dependency recording. Data was corrected for baseline and rundown (well based) and normalized for % inhibition (plate based). Five previously reported HCN inhibitors of varying potencies and selectivities and zatebradine were used for run to run and plate to plate quality controls. […] Percent inhibition was analysed at −80, −100, −120 mV of the voltage-dependency protocol and at pulse 0 and 50 of the use-dependency protocols. Selectivity was assessed against HCN2, HCN3, and HCN4 overexpressing cell lines using similar methods. As HCN4 has a slower activation than the other HCN channels, activation was extended to achieve steady state activation.
In general terms: In patch-clamp work, channel activity is measured electrically.

The target of another assay is T2, HCN3 (Homo sapiens, UniProt Q9P1Z3).
T2 construct: expressed in transfected cells
T2 sequence (Q9P1Z3 1-774): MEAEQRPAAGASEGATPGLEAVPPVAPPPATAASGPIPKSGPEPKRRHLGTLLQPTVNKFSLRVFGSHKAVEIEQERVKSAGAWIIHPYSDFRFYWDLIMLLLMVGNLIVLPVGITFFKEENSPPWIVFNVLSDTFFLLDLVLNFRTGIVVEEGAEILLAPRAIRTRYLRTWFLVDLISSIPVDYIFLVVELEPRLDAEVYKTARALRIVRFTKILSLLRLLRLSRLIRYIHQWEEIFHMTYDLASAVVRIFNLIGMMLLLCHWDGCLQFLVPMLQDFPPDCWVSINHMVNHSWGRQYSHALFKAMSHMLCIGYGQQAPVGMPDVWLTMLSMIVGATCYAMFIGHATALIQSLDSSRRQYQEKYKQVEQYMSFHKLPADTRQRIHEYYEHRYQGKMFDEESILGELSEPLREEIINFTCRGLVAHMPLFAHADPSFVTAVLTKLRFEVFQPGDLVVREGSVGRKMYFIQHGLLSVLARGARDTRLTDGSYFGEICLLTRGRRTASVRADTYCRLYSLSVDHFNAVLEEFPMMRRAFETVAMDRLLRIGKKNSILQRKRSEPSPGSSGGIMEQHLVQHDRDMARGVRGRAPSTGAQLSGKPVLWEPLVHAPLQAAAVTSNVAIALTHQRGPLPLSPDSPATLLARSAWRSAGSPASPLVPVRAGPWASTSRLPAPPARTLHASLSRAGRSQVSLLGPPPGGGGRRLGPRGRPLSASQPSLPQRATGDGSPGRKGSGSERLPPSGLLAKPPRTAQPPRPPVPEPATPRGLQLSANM
Kind of assay: HCN3 automated patch clamp current inhibition assay (Ionworks Barracuda). As to conditions: HEK-293 cells stably expressing HCN3; current inhibition during a hyperpolarizing pulse of -100 mV. As for the experimental part:
as §1, §2, §3

A further assay addresses T3, HCN4 (Homo sapiens, UniProt Q9Y3Q4).
T3 construct: expressed in transfected cells
T3 sequence (Q9Y3Q4 1-1203): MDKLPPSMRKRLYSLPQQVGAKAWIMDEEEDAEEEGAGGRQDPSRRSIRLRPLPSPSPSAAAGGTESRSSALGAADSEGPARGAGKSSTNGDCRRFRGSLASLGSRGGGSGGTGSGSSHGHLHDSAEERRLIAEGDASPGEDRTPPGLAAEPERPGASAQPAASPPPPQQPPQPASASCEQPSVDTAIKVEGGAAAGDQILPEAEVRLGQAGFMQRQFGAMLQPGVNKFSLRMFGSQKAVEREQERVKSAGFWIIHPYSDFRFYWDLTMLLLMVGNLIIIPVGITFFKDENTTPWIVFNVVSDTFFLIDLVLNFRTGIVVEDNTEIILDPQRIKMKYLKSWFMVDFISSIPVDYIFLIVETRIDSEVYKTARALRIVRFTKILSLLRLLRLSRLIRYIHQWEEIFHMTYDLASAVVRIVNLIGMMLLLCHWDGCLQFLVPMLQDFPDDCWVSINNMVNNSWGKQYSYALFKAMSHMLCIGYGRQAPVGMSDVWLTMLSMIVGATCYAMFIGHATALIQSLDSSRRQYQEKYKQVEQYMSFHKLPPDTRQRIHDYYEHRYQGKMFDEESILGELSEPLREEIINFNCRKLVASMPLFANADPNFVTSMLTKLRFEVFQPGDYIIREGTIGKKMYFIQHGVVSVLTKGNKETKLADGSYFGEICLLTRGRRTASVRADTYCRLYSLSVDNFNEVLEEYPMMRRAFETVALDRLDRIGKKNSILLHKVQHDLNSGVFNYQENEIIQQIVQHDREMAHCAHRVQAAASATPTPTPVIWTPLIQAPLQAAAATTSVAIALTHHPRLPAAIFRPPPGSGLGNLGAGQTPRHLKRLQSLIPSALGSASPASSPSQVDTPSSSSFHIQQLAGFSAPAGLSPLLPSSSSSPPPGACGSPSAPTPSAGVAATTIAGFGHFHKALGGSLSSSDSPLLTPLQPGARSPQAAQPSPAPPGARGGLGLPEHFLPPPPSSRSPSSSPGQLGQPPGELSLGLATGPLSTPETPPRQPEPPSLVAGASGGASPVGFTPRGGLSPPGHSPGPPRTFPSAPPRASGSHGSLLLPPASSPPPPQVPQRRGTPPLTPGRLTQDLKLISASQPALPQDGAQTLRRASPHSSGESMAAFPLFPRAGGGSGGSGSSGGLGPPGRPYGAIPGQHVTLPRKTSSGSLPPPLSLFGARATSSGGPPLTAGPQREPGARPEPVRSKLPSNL
Kind of assay: HCN4 automated patch clamp current inhibition assay (Ionworks Barracuda). As to conditions: HEK-293 cells stably expressing HCN4; current inhibition during a hyperpolarizing pulse of -100 mV. Here is the method: as §1, §2, §3

The target in the next assay is T4, HCN2 (Homo sapiens, UniProt Q9UL51).
T4 construct: expressed in transfected cells
T4 sequence (Q9UL51 1-889): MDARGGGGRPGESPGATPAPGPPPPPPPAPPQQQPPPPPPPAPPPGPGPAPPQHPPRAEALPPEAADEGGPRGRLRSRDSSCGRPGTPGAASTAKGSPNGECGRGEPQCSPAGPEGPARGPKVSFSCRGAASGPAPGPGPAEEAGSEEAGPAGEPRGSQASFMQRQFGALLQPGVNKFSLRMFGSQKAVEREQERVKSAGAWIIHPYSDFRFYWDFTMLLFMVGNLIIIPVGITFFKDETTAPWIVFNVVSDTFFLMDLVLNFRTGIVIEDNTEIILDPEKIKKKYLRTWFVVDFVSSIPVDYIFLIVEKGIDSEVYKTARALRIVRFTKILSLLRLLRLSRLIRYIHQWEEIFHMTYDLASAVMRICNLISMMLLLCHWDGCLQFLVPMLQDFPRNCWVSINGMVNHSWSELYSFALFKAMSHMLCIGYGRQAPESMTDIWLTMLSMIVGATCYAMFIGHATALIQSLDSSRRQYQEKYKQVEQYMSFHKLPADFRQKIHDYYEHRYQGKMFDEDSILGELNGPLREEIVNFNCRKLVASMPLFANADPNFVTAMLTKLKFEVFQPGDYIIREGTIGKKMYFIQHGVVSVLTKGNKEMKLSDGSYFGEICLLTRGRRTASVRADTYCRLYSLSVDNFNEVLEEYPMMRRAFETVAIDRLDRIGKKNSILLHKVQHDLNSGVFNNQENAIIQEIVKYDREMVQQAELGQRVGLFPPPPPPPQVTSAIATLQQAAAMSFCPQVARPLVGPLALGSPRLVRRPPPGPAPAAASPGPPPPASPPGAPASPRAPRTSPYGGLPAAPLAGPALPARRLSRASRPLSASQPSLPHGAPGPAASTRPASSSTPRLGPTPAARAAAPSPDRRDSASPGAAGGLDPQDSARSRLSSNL
The assay is described as follows: HCN2 automated patch clamp current inhibition assay (Ionworks Barracuda). The following applies: HEK-293 cells stably expressing HCN2; current inhibition during a hyperpolarizing pulse of -100 mV. Here is the method:
as §1, §2, §3

For `Cc1ccc(-n2c(C(N)=O)nc(C#Cc3cccc4c3OCO4)c2C)cn1` [Example 13, 4-(Benzo[d][1,3]dioxol-4-ylethynyl)-5-methyl-1-(6-methylpyridin-3-yl)-1H-imidazole-2-carboxamide], the IC50 was 0.903 µM on HCN1 and greater than 40 µM against HCN3.
In the same order, the values of `Cc1ccc(-n2c(C(N)=O)nc(C#Cc3cccc(Cl)n3)c2C)cn1` [Example 14, 4-((6-Chloropyridin-2-yl)ethynyl)-5-methyl-1-(6-methylpyridin-3-yl)-1H-imidazole-2-carboxamide] are 1.94 µM and greater than 40 µM.
In the same order, the values of `Cc1ccc(-n2c(C(N)=O)nc(C#Cc3cc(Cl)ccn3)c2C)cn1` [Example 18, 4-((4-Chloropyridin-2-yl)ethynyl)-5-methyl-1-(6-methylpyridin-3-yl)-1H-imidazole-2-carboxamide] are 4.1 µM and greater than 40 µM.
For `Cc1ccc(-n2c(C(N)=O)nc(C#Cc3ccncc3)c2C)cn1` [Example 21, 5-Methyl-1-(6-methyl-3-pyridyl)-4-[2-(4-pyridyl)ethynyl]imidazole-2-carboxamide] the same measures were 11.2 µM and greater than 40 µM.
For `Cc1cncc(-n2c(C(N)=O)nc(C#Cc3ccnc(Cl)c3C)c2C)c1` [Example 25, 4-[2-(2-Chloro-3-methyl-4-pyridyl)ethynyl]-5-methyl-1-(5-methyl-3-pyridyl)imidazole-2-carboxamide], the IC50 at HCN1 was 0.125 µM; against HCN3, 20.5 µM; on HCN4, greater than 40 µM.
In the same order, the values of `Cc1ccc(-c2c(C(N)=O)nc(C#Cc3ccnc(Cl)c3C)n2C)cn1` [Example 33] are 0.947 µM, greater than 40 µM and greater than 40 µM.
Consider `Cc1ccc(-n2c(C(N)=O)nc(C#Cc3ccccc3)c2C)cc1` [Example 37, 5-Methyl-4-(phenylethynyl)-1-(p-tolyl)-1H-imidazole-2-carboxamide], for which the IC50 is 3.12 µM against HCN1 and greater than 40 µM against HCN3.
Consider `Cc1c(C#Cc2ccnc(Cl)c2)nc(C(N)=O)n1-c1cccc(Cl)c1` [Example 40, 1-(3-Chlorophenyl)-4-((2-chloropyridin-4-yl)ethynyl)-5-methyl-1H-imidazole-2-carboxamide], for which the IC50 against HCN1 was 3.16 µM; at HCN2, greater than 40 µM; on HCN4, greater than 40 µM.
As for `Cc1c(C#Cc2ccnc(Cl)c2)nc(C(N)=O)n1-c1ccc(F)cc1F` [Example 41, 4-(2-Chloro-pyridin-4-ylethynyl)-1-(2,4-difluoro-phenyl)-5-methyl-1H-imidazole-2-carboxylic Acid Amide], the IC50 was 17.4 µM on HCN1 and greater than 40 µM against HCN3.
In the same order, the values of `Cc1ccc(-n2cc(C#Cc3ccnc(Cl)c3)nc2C(N)=O)cn1` [Example 43, 4-((2-Chloropyridin-4-yl)ethynyl)-1-(6-methylpyridin-3-yl)-1H-imidazole-2-carboxamide] are 2.52 µM and greater than 40 µM.
